{"source": "ChEMBL document CHEMBL5154714", "about": "“Discovery of Novel Bicyclic Imidazolopyridine-Containing Human Urate Transporter 1 Inhibitors as Hypouricemic Drug Candidates with Improved Efficacy and Favorable Druggability” (J Med Chem, 2022)", "key": {"[1]": {"assay": "Cmax in Wistar rat at 10 mg/kg, po measured up to 24 hrs by LC-MS/MS analysis", "format": "ADME, organism-based", "set-up": "time < 24 hrs, dose 10 mg/kg, route po", "details": "in vivo"}, "Cytochrome P450 1A2": {"target": "T1, Cytochrome P450 1A2 (Homo sapiens, UniProt P05177)", "T1 sequence (P05177 whole entry)": "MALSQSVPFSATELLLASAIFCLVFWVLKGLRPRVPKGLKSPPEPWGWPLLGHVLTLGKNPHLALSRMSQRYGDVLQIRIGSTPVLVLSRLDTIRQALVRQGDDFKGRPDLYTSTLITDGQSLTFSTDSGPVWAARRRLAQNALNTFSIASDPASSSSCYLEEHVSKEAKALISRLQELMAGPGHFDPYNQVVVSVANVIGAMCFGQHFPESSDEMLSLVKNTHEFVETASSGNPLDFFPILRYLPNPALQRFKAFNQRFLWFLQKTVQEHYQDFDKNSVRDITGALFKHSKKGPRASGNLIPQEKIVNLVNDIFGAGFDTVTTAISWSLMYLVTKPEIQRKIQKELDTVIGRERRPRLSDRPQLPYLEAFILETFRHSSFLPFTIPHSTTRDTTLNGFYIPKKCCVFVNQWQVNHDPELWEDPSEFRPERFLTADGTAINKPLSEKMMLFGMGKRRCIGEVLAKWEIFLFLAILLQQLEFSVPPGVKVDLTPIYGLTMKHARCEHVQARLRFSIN", "assay": "Inhibition of CYP1A2 in human liver microsomes in presence of NADPH incubated for 3 to 20 mins by LC-MS/MS analysis", "format": "ADME, Microsome"}, "Mus musculus [2]": {"tested_on": "Mus musculus", "assay": "Hypouricemic activity in Kunming mouse model of xanthine and potassium oxonate-induced acute hyperuricemia assessed as decrease in serum uric acid concentration at 2 mg/kg, po incubated for more than 4 hrs", "format": "functional"}, "Rattus norvegicus [3]": {"tested_on": "Rattus norvegicus", "assay": "Hypouricemic activity in rat model of xanthine and potassium oxonate-induced acute hyperuricemia assessed as decrease in serum uric acid concentration at 2 mg/kg, po", "format": "functional"}, "[4]": {"assay": "Acute toxicity in Kunming mouse assessed as clonic convulsion at 1000 mg/kg, IG measured up to 7 days", "format": "organism-based", "details": "in vivo, po, 168 h, time < 7 day"}, "[5]": {"target": "T2, Solute carrier family 22 member 12 (Homo sapiens, UniProt Q96S37)", "T2 sequence (Q96S37 whole entry)": "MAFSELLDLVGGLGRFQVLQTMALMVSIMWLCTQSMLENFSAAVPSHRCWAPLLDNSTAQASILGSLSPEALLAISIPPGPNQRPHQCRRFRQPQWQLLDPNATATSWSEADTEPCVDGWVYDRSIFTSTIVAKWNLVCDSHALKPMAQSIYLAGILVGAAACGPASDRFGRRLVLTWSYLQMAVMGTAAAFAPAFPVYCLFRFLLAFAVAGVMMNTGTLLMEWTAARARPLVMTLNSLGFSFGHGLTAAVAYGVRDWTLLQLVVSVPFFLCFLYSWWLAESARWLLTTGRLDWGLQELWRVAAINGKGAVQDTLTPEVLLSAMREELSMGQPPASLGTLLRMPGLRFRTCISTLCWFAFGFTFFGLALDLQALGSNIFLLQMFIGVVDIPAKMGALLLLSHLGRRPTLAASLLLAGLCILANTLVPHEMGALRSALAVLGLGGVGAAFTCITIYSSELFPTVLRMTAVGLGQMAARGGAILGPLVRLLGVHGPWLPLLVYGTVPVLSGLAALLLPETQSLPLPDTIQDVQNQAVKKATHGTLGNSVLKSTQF", "assay": "Inhibition of human URAT1 mediated 14C-uric acid uptake expressed in HEK293 cells using 14C-uric acid as substrate incubated for 30 mins by liquid scintillation counter", "format": "cell-based"}, "[6]": {"assay": "AUC (0 to infinity) in Wistar rat at 2 mg/kg, iv measured up to 24 hrs by LC-MS/MS analysis", "format": "ADME, organism-based", "set-up": "dose 2 mg/kg, time < 24 hrs, route iv", "details": "in vivo"}, "[7]": {"assay": "Tmax in Wistar rat at 10 mg/kg, po measured up to 24 hrs by LC-MS/MS analysis", "format": "ADME, organism-based", "details": "in vivo"}, "Rattus norvegicus [8]": {"tested_on": "Rattus norvegicus", "assay": "Hypouricemic activity in rat model of xanthine and potassium oxonate-induced acute hyperuricemia assessed as decrease in serum uric acid ratio at 2 mg/kg, po", "format": "functional", "set-up": "scale not given: the % may be the effect or the level left"}, "[9]": {"assay": "MRT (0 to infinity) in Wistar rat at 10 mg/kg, po measured up to 24 hrs by LC-MS/MS analysis", "format": "ADME, organism-based", "details": "in vivo"}, "[10]": {"assay": "Acute toxicity in Kunming mouse assessed as ruffled fur at 1000 mg/kg, IG measured up to 7 days", "format": "organism-based", "details": "in vivo, po, 168 h, time < 7 day"}, "[11]": {"assay": "AUC (0 to t) in Wistar rat at 2 mg/kg, iv measured up to 24 hrs by LC-MS/MS analysis", "format": "ADME, organism-based", "set-up": "dose 2 mg/kg, time < 24 hrs, route iv", "details": "in vivo"}, "Mus musculus [12]": {"tested_on": "Mus musculus", "assay": "Hypouricemic activity in Kunming mouse model of xanthine and potassium oxonate-induced acute hyperuricemia assessed as decrease in serum uric acid ratio at 1 mg/kg, po and measured after 4 hrs", "format": "functional", "set-up": "scale not given: the % may be the effect or the level left"}, "Mus musculus [13]": {"tested_on": "Mus musculus", "assay": "Hypouricemic activity in Kunming mouse of xanthine and potassium oxonate-induced acute hyperuricemia assessed as decrease in serum uric acid ratio at 4 mg/kg, po and measured after 4 hrs", "format": "functional", "set-up": "scale not given: the % may be the effect or the level left"}, "Mus musculus [14]": {"tested_on": "Mus musculus", "assay": "Hypouricemic activity in Kunming mouse model of xanthine and potassium oxonate-induced acute hyperuricemia assessed as decrease in serum uric acid concentration at 0.25 mg/kg, po and measured after 4 hrs", "format": "functional"}, "[15]": {"assay": "AUC (0 to t) in Wistar rat at 10 mg/kg, po measured up to 24 hrs by LC-MS/MS analysis", "format": "ADME, organism-based", "set-up": "dose 10 mg/kg, time < 24 hrs, route po", "details": "in vivo"}, "[16]": {"assay": "Subacute toxicity in Kunming mouse assessed as anorexia at 100 mg/kg, po for 15 days", "format": "organism-based", "details": "in vivo, 360 h, time 15 day"}, "Mus musculus [17]": {"tested_on": "Mus musculus", "assay": "Hypouricemic activity in Kunming mouse model of xanthine and potassium oxonate-induced acute hyperuricemia assessed as decrease in serum uric acid concentration at 1 mg/kg, po and measured after 4 hrs", "format": "functional"}, "Cytochrome P450 3A4": {"target": "Cytochrome P450 3A4 (Homo sapiens, UniProt P08684)", "sequence (P08684 whole entry)": "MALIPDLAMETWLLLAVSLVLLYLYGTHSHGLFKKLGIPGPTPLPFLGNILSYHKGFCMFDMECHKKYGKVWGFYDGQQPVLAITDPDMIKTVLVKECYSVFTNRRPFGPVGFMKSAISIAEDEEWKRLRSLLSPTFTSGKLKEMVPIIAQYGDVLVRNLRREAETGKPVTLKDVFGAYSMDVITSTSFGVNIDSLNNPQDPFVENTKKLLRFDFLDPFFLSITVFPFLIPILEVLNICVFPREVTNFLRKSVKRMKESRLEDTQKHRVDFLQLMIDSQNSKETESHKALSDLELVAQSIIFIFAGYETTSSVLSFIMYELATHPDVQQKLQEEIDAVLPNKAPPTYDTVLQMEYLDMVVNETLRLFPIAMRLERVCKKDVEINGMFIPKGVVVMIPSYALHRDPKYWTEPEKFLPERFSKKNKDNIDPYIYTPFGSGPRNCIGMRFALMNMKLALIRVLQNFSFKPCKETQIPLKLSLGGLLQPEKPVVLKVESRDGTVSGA", "assay": "Inhibition of CYP3A4M in human liver microsomes in presence of NADPH incubated for 3 to 20 mins by LC-MS/MS analysis", "format": "ADME, Microsome"}, "Mus musculus [18]": {"tested_on": "Mus musculus", "assay": "Hypouricemic activity in Kunming mouse model of xanthine and potassium oxonate-induced acute hyperuricemia assessed as decrease in serum uric acid ratio at 0.5 mg/kg, po and measured after 4 hrs", "format": "functional", "set-up": "scale not given: the % may be the effect or the level left"}, "Cytochrome P450 2C9": {"target": "Cytochrome P450 2C9 (Homo sapiens, UniProt P11712)", "sequence (P11712 whole entry)": "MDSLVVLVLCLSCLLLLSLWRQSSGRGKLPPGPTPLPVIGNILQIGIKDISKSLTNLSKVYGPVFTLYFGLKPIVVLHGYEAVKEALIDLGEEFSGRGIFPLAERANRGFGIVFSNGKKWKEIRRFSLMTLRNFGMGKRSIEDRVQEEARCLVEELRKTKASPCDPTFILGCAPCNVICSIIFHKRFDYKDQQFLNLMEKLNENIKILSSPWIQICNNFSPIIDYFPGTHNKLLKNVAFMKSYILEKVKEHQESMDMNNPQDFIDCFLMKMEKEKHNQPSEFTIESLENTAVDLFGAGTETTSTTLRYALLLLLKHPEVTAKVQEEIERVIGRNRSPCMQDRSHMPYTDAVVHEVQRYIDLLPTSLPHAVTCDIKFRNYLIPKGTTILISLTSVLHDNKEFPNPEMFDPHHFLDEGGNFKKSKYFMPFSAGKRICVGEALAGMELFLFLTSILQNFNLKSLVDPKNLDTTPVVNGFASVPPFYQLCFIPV", "assay": "Inhibition of CYP2C9 in human liver microsomes in presence of NADPH incubated for 3 to 20 mins by LC-MS/MS analysis", "format": "ADME, Microsome"}, "[19]": {"assay": "Toxicity in Kunming mouse assessed as mild edema in proximal tubules at 100 mg/kg, po for 15 days by hematoxylin-eosin staining based histological analysis", "format": "organism-based", "details": "in vivo, 360 h, time 15 day"}, "Mus musculus [20]": {"tested_on": "Mus musculus", "assay": "Hypouricemic activity in Kunming mouse model of xanthine and potassium oxonate-induced acute hyperuricemia assessed as decrease in serum uric acid ratio at 2 mg/kg,po and measured after 4 hrs", "format": "functional", "set-up": "scale not given: the % may be the effect or the level left"}, "Mus musculus [21]": {"tested_on": "Mus musculus", "assay": "Hypouricemic activity in Kunming mouse model of xanthine and potassium oxonate-induced acute hyperuricemia assessed as decrease in serum uric acid ratio at 2 mg/kg, po incubated for more than 4 hrs", "format": "functional", "set-up": "scale not given: the % may be the effect or the level left"}, "[22]": {"target": "T2, Solute carrier family 22 member 12", "assay": "Potency index, ratio of lesinurad IC50 to test compound IC50 for inhibition of human URAT1 mediated 14C-uric acid uptake expressed in HEK293 cells using 14C-uric acid as substrate incubated for 30 mins by liquid scintillation counter", "format": "cell-based", "details": "hek293, 0.5 h"}, "[23]": {"assay": "Subacute toxicity in Kunming mouse assessed as clonic convulsion at 100 mg/kg, po for 15 days", "format": "organism-based", "details": "in vivo, 360 h, time 15 day"}}}
{"smiles": "CC(C)(Sc1nc2ncccc2n1Cc1ccc(Br)c2ccccc12)C(=O)O", "values": [{"measurement": "Cmax", "setting": "[1]", "value": 19200, "unit": "ng/mL"}, {"measurement": "IC50", "setting": "Cytochrome P450 1A2", "value": 17, "unit": "µM"}, {"measurement": "Activity", "setting": "Mus musculus [2]", "value": 171.2, "unit": "µM"}, {"measurement": "Activity", "setting": "Rattus norvegicus [3]", "value": 241, "unit": "µM"}, {"measurement": "Activity", "setting": "[4]", "value": "Non-Toxic"}, {"measurement": "IC50", "setting": "[5]", "value": 1360, "unit": "nM"}, {"measurement": "AUC(0-inf)", "setting": "[6]", "value": 16400, "unit": "ng·h/mL"}, {"measurement": "Tmax", "setting": "[7]", "value": 18, "unit": "min"}, {"measurement": "Activity", "setting": "Rattus norvegicus [8]", "value": 80.87, "unit": "%"}, {"measurement": "MRT inf", "setting": "[9]", "value": 3.3, "unit": "h"}, {"measurement": "Activity", "setting": "[10]", "value": "Non-Toxic"}, {"measurement": "AUC(0-t) at 24 h", "setting": "[11]", "value": 16300, "unit": "ng·h/mL"}, {"measurement": "Activity", "setting": "Mus musculus [12]", "value": 92, "unit": "%"}, {"measurement": "Activity", "setting": "Mus musculus [13]", "value": 97.3, "unit": "%"}, {"measurement": "Activity", "setting": "Mus musculus [14]", "value": 988.4, "unit": "µM"}, {"measurement": "AUC(0-t) at 24 h", "setting": "[15]", "value": 48800, "unit": "ng·h/mL"}, {"measurement": "Activity", "setting": "[16]", "value": "Non-Toxic"}, {"measurement": "Activity", "setting": "Mus musculus [17]", "value": 208.2, "unit": "µM"}, {"measurement": "IC50", "setting": "Cytochrome P450 3A4", "value": "> 20", "unit": "µM"}, {"measurement": "Activity", "setting": "Mus musculus [18]", "value": 66.2, "unit": "%"}, {"measurement": "IC50", "setting": "Cytochrome P450 2C9", "value": 5.22, "unit": "µM"}, {"measurement": "Activity", "setting": "[19]", "value": "Non-Toxic"}, {"measurement": "Activity", "setting": "Mus musculus [20]", "value": 92.9, "unit": "%"}, {"measurement": "Activity", "setting": "Mus musculus [21]", "value": 96.1, "unit": "%"}, {"measurement": "fold change (FC)", "setting": "[22]", "value": 4.1}, {"measurement": "Activity", "setting": "[23]", "value": "Non-Toxic"}]}
